# Source: PubChem BioAssay AID493058 (The Scripps Research Institute Molecular Screening Center, 2011)
# Active and inactive are the calls of the source.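 How the source made its calls: active means EC50 of 10 µM or lower; inactive means EC50 above 10 µM.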
# Tested on: DHL10 Bax/Bak-deficient cells, cytotoxicity, MTS absorbance
# Assay: cytotoxicity in Bax/Bak-deficient DHL10 cells, late-stage follow-up, counter-screen for MCL1-BIM inhibitor project, cell-based, MTS absorbance, EC50 (AID 493058)
row,Compound,EC50
1,COC(=O)C1CCN(C(=O)c2cc(-c3ccco3)nc3ccccc23)CC1,> 25 µM (inactive)
2,O=C(NC1CCC(O)CC1)c1cc(-c2ccco2)nc2ccccc12 (stereo not given),> 25 µM (inactive)
3,Cc1ccc(-c2cc(C(=O)N(C)CC(=O)Nc3ccccc3Br)c3ccccc3n2)o1,> 25 µM (inactive)
4,Cc1ccc(NC(=O)c2cc(-c3ccc(C)o3)nc3ccccc23)nc1,> 25 µM (inactive)
5,Cc1ccc(-c2cc(C(=O)Nc3cccnc3)c3ccccc3n2)o1,> 25 µM (inactive)
6,Cc1ccc(-c2cc(C(=O)Nc3ccccc3C)c3ccccc3n2)o1,> 25 µM (inactive)
7,O=C(Nc1nccs1)c1cc(-c2ccco2)nc2ccccc12,> 25 µM (inactive)
8,COc1ccc(NC(=O)c2cc(-c3ccco3)nc3ccccc23)cc1,> 25 µM (inactive)
9,O=C(c1cc(-c2ccco2)nc2ccccc12)N1CCN(c2ccc(F)cc2)CC1,> 25 µM (inactive)
10,O=C(Nc1cccc(S(=O)(=O)NC2=NCCC2)c1)c1cc(-c2ccco2)nc2ccccc12,> 25 µM (inactive)
11,CCC(=O)Nc1nnc(Cc2ccccc2)s1,> 25 µM (inactive)
12,Cc1ccc(-c2cc(C(=O)Nc3ccccc3C(N)=O)c3ccccc3n2)o1,> 25 µM (inactive)
13,COc1ccc(Cc2nnc(NC(=O)c3cc(-c4ccco4)nc4ccc(Br)cc34)s2)cc1OC,20 µM (inactive)
14,Cc1ccc(NC(=O)c2cc(-c3ccc(C)o3)nc3ccccc23)cc1,> 25 µM (inactive)
15,O=C(Nc1cccnc1)c1cc(-c2ccco2)nc2ccc(Br)cc12,> 25 µM (inactive)
16,COc1ccc(NC(=O)c2cc(-c3ccc(C)o3)nc3ccccc23)cc1,> 25 µM (inactive)
17,Cc1ccc(-c2cc(C(=O)N3CCN(c4ccccc4O)CC3)c3ccccc3n2)o1,> 25 µM (inactive)
18,O=C(Cc1cccs1)Nc1nnc(Cc2ccccc2)s1,> 25 µM (inactive)
19,COc1ccc(Cc2nnc(NC(=O)c3cc(-c4ccc(C)o4)nc4ccccc34)s2)cc1OC,25 µM (inactive)
20,COc1ccc(CCNC(=O)c2cc(-c3ccco3)nc3ccccc23)cc1,> 25 µM (inactive)
21,CN(CC(=O)Nc1ccc(F)cc1)C(=O)c1cc(-c2ccco2)nc2ccccc12,> 25 µM (inactive)
22,COc1ccc(Cc2nnc(NC(=O)Cc3ccccc3C)s2)cc1OC,> 25 µM (inactive)
23,O=C(Nc1ccccc1N1CCOCC1)c1cc(-c2ccco2)nc2ccccc12,> 25 µM (inactive)
24,COc1ccc(Cc2nnc(NC(=O)Cc3ccc4c(c3)OCO4)s2)cc1OC,> 25 µM (inactive)

row,Compound,EC50
1,COc1ccc(Cc2nnc(NC(=O)Cc3cccs3)s2)cc1OC,> 25 µM (inactive)
2,O=C(CCn1nnc2ccccc21)Nc1nnc(Cc2ccc(F)cc2)s1,> 25 µM (inactive)
3,COc1ccc(Cc2nnc(NC(=O)Cc3cccs3)s2)cc1,> 25 µM (inactive)
4,Cc1ccc(-c2cc(C(=O)N3CC(C)CC(C)C3)c3ccccc3n2)o1 (stereo not given),> 25 µM (inactive)
5,COc1cccc(NC(=O)CN(C)C(=O)c2cc(-c3ccco3)nc3ccccc23)c1,> 25 µM (inactive)
6,O=C(CCn1nnc2ccccc21)Nc1nnc(Cc2ccccc2)s1,> 25 µM (inactive)
7,COc1ccc(Cc2nnc(NC(=O)Cc3ccc(N(C)C)cc3)s2)cc1OC,> 25 µM (inactive)
8,CC(C)CCNC(=O)c1cc(-c2ccco2)nc2ccccc12,> 25 µM (inactive)
9,O=C(NC1CC1)c1cc(-c2ccco2)nc2ccccc12,> 25 µM (inactive)
10,COc1ccc(Cc2nnc(NC(=O)Cc3c[nH]c4ccccc34)s2)cc1OC,> 25 µM (inactive)
11,COc1ccc(Cc2nnc(NC(=O)Cc3ccccn3)s2)cc1OC,> 25 µM (inactive)
12,CCCCn1c(N)c(N(CCOC)C(=O)c2cc(-c3ccco3)nc3ccccc23)c(=O)[nH]c1=O,> 25 µM (inactive)
13,Cc1csc(NC(=O)c2cc(-c3ccco3)nc3ccccc23)n1,> 25 µM (inactive)
14,COc1ccc(-c2cc(=O)oc3cc(OCC(=O)N4CC4)ccc23)cc1,> 25 µM (inactive)
15,Cc1ccc2nc(NC(=O)c3cc(-c4ccco4)nc4ccccc34)sc2c1,> 25 µM (inactive)
16,CCCCN(C(=O)c1cc(-c2ccco2)nc2ccccc12)c1c(N)n(CCC)c(=O)[nH]c1=O,> 25 µM (inactive)
17,O=C(Nc1ccccc1F)c1cc(-c2ccco2)nc2ccccc12,> 25 µM (inactive)
18,COc1ccc(CC(=O)Nc2nnc(Cc3ccc(OC)c(OC)c3)s2)cc1,> 25 µM (inactive)
19,COc1ccc(Cc2nnc(NC(=O)Cc3ccc(Oc4ccccc4)cc3)s2)cc1OC,> 25 µM (inactive)
20,CCCN(C(=O)c1cc(-c2ccco2)nc2ccccc12)c1c(N)n(Cc2ccccc2)c(=O)[nH]c1=O,> 25 µM (inactive)
21,CCN(CC)C(=O)COc1ccc2c(-c3ccc(OC)cc3)cc(=O)oc2c1C,> 25 µM (inactive)
22,Cc1ccc(-c2cc(C(=O)N3CCOCC3)c3ccccc3n2)o1,> 25 µM (inactive)
23,Cc1ccc(-c2cc(C(=O)Nc3nccs3)c3ccccc3n2)o1,> 25 µM (inactive)
24,CN(CC(=O)Nc1cccc(F)c1)C(=O)c1cc(-c2ccco2)nc2ccccc12,> 25 µM (inactive)

row,Compound,EC50
1,CN(CCOc1ccc(Cl)cc1)C(=O)c1cc(-c2ccco2)nc2ccccc12,> 25 µM (inactive)
2,COc1ccc(Cc2nnc(NC(=O)Cc3ccncc3)s2)cc1OC,> 25 µM (inactive)
3,COc1ccc(Cc2nnc(CC(=O)Nc3cccs3)s2)cc1,> 25 µM (inactive)
4,COc1ccc(Cc2nnc(NC(=O)C(F)c3ccccc3)s2)cc1OC (stereo not given),> 25 µM (inactive)
5,COc1ccc(Cc2nnc(NC(=O)Cc3cccc(Br)c3)s2)cc1OC,> 25 µM (inactive)
6,CCOc1cc(N2CCOCC2)c(OCC)cc1NC(=O)c1cc(-c2ccco2)nc2ccccc12,> 25 µM (inactive)
7,Cc1ccc(-c2cc(C(=O)N3CCN(c4ncccn4)CC3)c3cc(Br)ccc3n2)o1,> 25 µM (inactive)
8,Cc1ccc(S(=O)(=O)N(C)C)cc1NC(=O)c1cc(-c2ccco2)nc2ccccc12,> 25 µM (inactive)
9,O=C(NC(=S)Nc1cccc(S(=O)(=O)NC2=NCCC2)c1)c1cc(-c2ccco2)nc2ccccc12,> 25 µM (inactive)
10,COc1ccc(Cc2nnc(NC(=O)Cc3ccc(-c4ccccc4)cc3)s2)cc1OC,> 25 µM (inactive)
11,CCCn1c(N)c(N(CCOC)C(=O)c2cc(-c3ccco3)nc3ccccc23)c(=O)[nH]c1=O,> 25 µM (inactive)
12,COc1ccc(Cc2nnc(NC(=O)Cc3ccc(C)cc3)s2)cc1OC,> 25 µM (inactive)
13,Cc1ccc(-c2cc(C(=O)N3CCN(c4ccc(F)cc4)CC3)c3ccccc3n2)o1,> 25 µM (inactive)
14,COc1cccc(NC(=O)c2cc(-c3ccc(C)o3)nc3ccccc23)c1,> 25 µM (inactive)
15,COc1ccc(Cc2nnc(NC(=O)CCc3cccs3)s2)cc1OC,> 25 µM (inactive)
16,COc1ccc(Cc2nnc(NC(=O)C(=O)c3ccco3)s2)cc1OC,> 25 µM (inactive)
17,O=C(Nc1nncs1)c1cc(-c2ccco2)nc2ccccc12,> 25 µM (inactive)
18,O=C(Nc1ccc(F)cc1F)c1cc(-c2ccco2)nc2ccccc12,> 25 µM (inactive)
19,Cc1ccnc(NC(=O)c2cc(-c3ccco3)nc3ccc(Br)cc23)c1,> 25 µM (inactive)
20,CCOC(=O)c1cc(-c2ccco2)nc2c1c(C)nn2-c1ccccc1,> 25 µM (inactive)
21,CCc1nnc(NC(=O)c2cc(-c3ccco3)nc3ccccc23)s1,> 25 µM (inactive)
22,COc1ccccc1NC(=O)c1cc(-c2ccc(C)o2)nc2ccccc12,> 25 µM (inactive)
23,O=C(Nc1cccc(S(=O)(=O)NC2=NCCCCC2)c1)c1cc(-c2ccco2)nc2ccccc12,> 25 µM (inactive)
24,COc1cccc(NC(=O)CN(C)C(=O)c2cc(-c3ccc(C)o3)nc3ccccc23)c1,> 25 µM (inactive)

row,Compound,EC50
1,CCCCN(C(=O)c1cc(-c2ccco2)nc2ccccc12)c1c(N)n(CCCC)c(=O)[nH]c1=O,> 25 µM (inactive)
2,O=C(Nc1cccc(F)c1)c1cc(-c2ccco2)nc2ccccc12,> 25 µM (inactive)
3,O=C(c1cc(-c2ccco2)nc2ccccc12)N1CCN(Cc2ccccc2)CC1,> 25 µM (inactive)
4,CN(C)C(CNC(=O)c1cc(-c2ccco2)nc2ccccc12)c1ccccc1 (stereo not given),> 25 µM (inactive)
5,COc1ccc(Cc2nnc(NC(=O)Cc3cccnc3)s2)cc1OC,> 25 µM (inactive)
6,CCN(CC)C(=O)COc1ccc2c(-c3ccc(OC)cc3)cc(=O)oc2c1,> 25 µM (inactive)
7,COc1ccc(Cc2nnc(NC(=O)Cc3cc(F)cc(F)c3)s2)cc1OC,> 25 µM (inactive)
8,Cc1cccc(NC(=O)c2cc(-c3ccco3)nc3ccc(Br)cc23)n1,10 µM
9,COc1cccc(CC(=O)Nc2nnc(Cc3ccc(OC)c(OC)c3)s2)c1,> 25 µM (inactive)
10,COc1ccc(NC(=O)CN(C)C(=O)c2cc(-c3ccc(C)o3)nc3ccccc23)cc1,> 25 µM (inactive)
11,CCOC(=O)c1cc(-c2ccco2)nc2c1c(C)nn2-c1cccc(Cl)c1,> 25 µM (inactive)
12,O=C(c1cc(-c2ccco2)nc2ccccc12)N(Cc1nnc(-c2ccc(Cl)cc2)o1)C1CC1,> 25 µM (inactive)
13,Cc1ccc(-c2cc(C(=O)N3CCCC(C(F)(F)F)C3)c3ccccc3n2)o1 (stereo not given),> 25 µM (inactive)
14,Cc1ccc(-c2cc(C(=O)N3CC(C)OC(C)C3)c3ccccc3n2)o1 (stereo not given),> 25 µM (inactive)
15,Cc1cccc(NC(=O)c2cc(-c3ccco3)nc3ccccc23)n1,> 25 µM (inactive)
16,CC(=O)c1cccc(NC(=O)c2cc(-c3ccco3)nc3ccccc23)c1,> 25 µM (inactive)
17,O=C(c1cc(-c2ccco2)nc2ccccc12)N1CCCC(C(F)(F)F)C1 (stereo not given),> 25 µM (inactive)
18,O=C(Nc1ccccn1)c1cc(-c2ccco2)nc2ccc(Br)cc12,10 µM
19,COc1ccc(NC(=O)c2cc(-c3ccc(C)o3)nc3ccccc23)cc1OC,> 25 µM (inactive)
20,Cc1ccnc(NC(=O)c2cc(-c3ccc(C)o3)nc3ccccc23)c1,> 25 µM (inactive)
21,O=C(NCC1CCCO1)c1cc(-c2ccco2)nc2ccccc12 (stereo not given),> 25 µM (inactive)
22,COc1ccc(NC(=O)c2cc(-c3ccco3)nc3ccccc23)cn1,> 25 µM (inactive)
23,Cc1ccc(-c2cc(C(=O)NCCCn3ccnc3)c3cc(Br)ccc3n2)o1,> 25 µM (inactive)
